Source: EP3878462B1 (priority 2015, dated 2017)
Read-outs that look alike come from different tables or passages of the source.

Key:
L1210 leukemia cells = test: Survival of mice transplanted with L1210 leukemia cells; type: in vivo, DBA2 mice; conditions: single agent: AraC 1000 mg/kg IP Days 2, 5, 8, or DNase II 15 or 45 mg/kg/day IP; Figure 4
Experimental: Treatment with DNase and AraC was initiated on Day 1 of experiment. Cytosine arabinoside (AraC; Cytosar; Pfizer) was injected IP at a dose of 1000 mg/kg on Days 2, 5 and 8. The injected doses were considered adequate for the model and injection route based on prior experiments (13-14). DNase II (Wornington) was injected IP at doses of 15 mg/kg/day and 45 mg/kg/day on Days 1, 3, 5, 8, 10, 12, 15, 17, and 19.
Animals were randomized into 6 experimental groups of 6 mice per group as follows: • 1. Group I: negative control (no treatment); • 2. Group II: positive control (animals treated with AraC); • 3. Group III: animals treated with AraC and 15 mg/kg DNase; • 4. Group IV: animals treated with AraC and 45 mg/kg DNase; • 5. Group V: animals treated with 15 mg/kg DNase, no AraC; • 6. Group VI: animals treated with 45 mg/kg DNase, no AraC.

[1] = Etoposide 200 mg/kg + 5-FU 400 mg/kg per os, treatment 50 mg/kg IV
Experimental: On Day 1, Etoposide (LANCE) 200 mg/kg and 5-fluorouracil (5-FU; EBEWE) 400 mg/kg were given orally via feeding needle in 500 pl of a 9% glucose solution. Animals were divided into 4 groups of 16 rats each. […] Group I: IV placebo (WFI); • 2. Group II: human recombinant DNase I (Pharmsynthez OJSC) at 1.5 mg/kg (3000 KU/kg) dose IV; • 3. Group III: human recombinant DNase I (Pharmsynthez OJSC) at 50 mg/kg (100000 KU/kg) dose IV; • 4. Group IV: cimetidine solution (Gedeon Richter) at 50 mg/kg dose IV.
36 hours later, all animals were euthanized and their stomachs were removed and analyzed for the presence of erosions and hemorrhages using an automated video analyzer system.

[2] = for Body weight of surviving rats: Doxorubicin 3.75 mg/kg plus DNase I 15 mg/kg/day IP or placebo; for Number of dead/out of total in group: monitored 2 weeks
Source text: Group I: control group (no Doxorubicin, no DNase); • 2.
Animals were monitored during 2 weeks from the beginning of experiment for survival and weight.

[3] = surviving rats, Day 14; Doxorubicin 3.75 mg/kg plus DNase I 15 mg/kg/day IP or placebo
Experimental: 42 Wistar male rats (180-200 g) were used in this experiment (obtained from Stolbovaya nursery of Russian Academy of Medical Sciences). Animals were kept under standard conditions with free access to food and drinking water. Animals were randomized into 7 groups (6 animals in each group) as follows: • 1. Group I: control group (no Doxorubicin, no DNase); • 2. Group II: animals treated by daily intravenous (IV) injections of Doxorubicin (LENS) at 3.75 mg/kg/day dose for 5 days plus daily intraperitoneal (IP) injections of human recombinant DNase I (Pharmsynthez OJSC) at 15 mg/kg/day dose (30000 KU/kg/day); Doxorubicin and DNase I injections were administered at the same time; • 3. Group III: animals treated by daily IV injections of Doxorubicin (LENS) at 3.75 mg/kg/day dose for 5 days plus daily IP injections of placebo (water for injection [WFI]); • 4. Group IV: animals treated by daily IV injections of Doxorubicin (LENS) at 7.5 mg/kg/day dose for 5 days plus daily IP injections of human recombinant DNase I (Pharmsynthez OJSC) at 15 mg/kg/day dose (30000 KU/kg/day); Doxorubicin and DNase I injections were administered at the same time; • 5. Group V: animals treated by daily IV injections of Doxorubicin (LENS) at 7.5 mg/kg/day dose for 5 days plus daily IP injections of placebo (WFI); • 6. Group VI: animals treated by daily IV injections of Doxorubicin (LENS) at 10.0 mg/kg/day dose for 5 days plus daily IP injections of human recombinant DNase I (Pharmsynthez OJSC) at 15 mg/kg/day dose (30000 KU/kg/day); Doxorubicin and DNase I injections were administered at the same time; • 7. Group VII: animals treated by daily IV injections of Doxorubicin (LENS) at 10.0 mg/kg/day dose for 5 days plus daily IP injections of placebo (WFI).

Thymocytes = test: Con A-induced lymphocyte blast transformation of thymocytes from paclitaxel-treated mice (3H thymidine incorporation); type: in vivo, (CBAxC57Bl6) F1 mice; conditions: thymocytes collected 24 hours after paclitaxel 20 mg/kg IV, with or without DNase gamma 2 mg/kg IP 1 hour later, scintillation counts
Experimental: 10 male 6-week-old (CBAxC57Bl6) F1 mice (obtained from Rappolovo animal house) were given a single 20 mg/kg dose of paclitaxel (Paclitaxel-Teva) IV. A group of 5 paclitaxel treated mice were injected IP 1 hour later with recombinant mouse DNase gamma (USCN Life Science Inc.) at 2 mg/kg dose IP. A group of 5 […] mice were injected IP at the same time with 1 ml of placebo (WFI) to serve as the control. All mice were killed 24 hours later by cervical dislocation. The thymuses from each group were collected and homogenized in a separator in RPMI 1640 media supplemented with 10% fetal calf serum. The suspension of thymocytes was filtered and sedimented in a centrifuge at 400xg for 2 minutes and then resuspended with the same media. Thymocytes were plated into 96 well plates (900,000 cells per well in 200 pl of RPMI 1640 supplemented with 10% fetal calf serum (FCS)) and incubated for 32 hours at 37°C, 100% humidity and 5% COz atmosphere. Each well was then supplemented with ^3H thymidine (UC/10pl/well) and Concanavalin A (ConA; 50pl; 1.25 pg/ml). After 24 hours of further incubation, thymocytes were harvested and dried. Labeled ^3H thymidine incorporation was measured using a Beckman scintillation counter.

[4] = Doxorubicin 3.75 mg/kg/day IV for 5 days plus DNase I 15 mg/kg/day IP or placebo (WFI)
[5] = Doxorubicin 7.5 mg/kg/day IV for 5 days plus DNase I 15 mg/kg/day IP or placebo (WFI)
[6] = Doxorubicin 10.0 mg/kg/day IV for 5 days plus DNase I 15 mg/kg/day IP or placebo (WFI)

**Q.** Which survival rates (L1210 leukemia cells) does the source give for Nc1ccn([C@@H]2O[C@H](CO)[C@@H](O)[C@@H]2O)c(=O)n1 [AraC, cytosine arabinoside] here?
**A.** better survival rates versus non-treated mice

**Q.** Which results are given for CN/C(=N/CCSCc1nc[nH]c1C)NC#N [Cimetidine, cimetidine]?
**A.** Median number of lesions [1]: 2.5±1.1; Number of lesion free animals (percent) [1]: 62.5%; Total number of lesions per group ([1]; 16 animals, 36 hours later): 40; Number of lesion free animals ([1]; of 16 animals): 10

**Q.** Which “Body weight of surviving rats” value ([2]; Baseline (before doxorubicin)) does the source give for COc1cccc2c1C(=O)c1c(O)c3c(c(O)c1C2=O)C[C@@](O)(C(=O)CO)C[C@@H]3O[C@H]1C[C@H](N)[C@H](O)[C@H](C)O1 [Doxorubicin] here?
**A.** 164 ± 6 grams

**Q.** What about the “Body weight of surviving rats” value ([2]; Day 4) of the same compound?
**A.** 143 ± 6 grams

**Q.** And the “Body weight of surviving rats” value ([2]; Day 7)?
**A.** 151 ± 7 grams

**Q.** What about the “Body weight of surviving rats” value ([2]; Day 14) of the same compound?
**A.** 156 ± 6 grams

**Q.** And the “Median survival of deceased rats” value [2, 4]?
**A.** 12 ± 2.1 days

**Q.** What about the “Number of dead/out of total in group” value [2, 4] of the same compound?
**A.** 3/6

**Q.** What about the “Median survival of deceased rats” value [2, 5] of the same compound?
**A.** 8.2 ± 1.0 days

**Q.** What about the “Number of dead/out of total in group” value [2, 5] of the same compound?
**A.** 5/6

**Q.** And the “Median survival of deceased rats” value [2, 6]?
**A.** 6.6 ± 0.9 days

**Q.** And the “Number of dead/out of total in group” value [2, 6]?
**A.** 6/6

**Q.** And the Basophils [3]?
**A.** 0%

**Q.** What about the Eosinophils [3] of the same compound?
**A.** 2.4±0.3%

**Q.** What about the Glucose [3] of the same compound?
**A.** 6.1 ± 0.2 mmol/L

**Q.** And the Haemoglobin [3]?
**A.** 9.5±0.7 G%

**Q.** And the Hematocrit [3]?
**A.** 30.5±2.2%

**Q.** And the K [3]?
**A.** 5.6 ± 0.3 mmol/L

**Q.** And the Lymphocytes [3]?
**A.** 82.3±2.2%

**Q.** And the Monocyte [3]?
**A.** 2.3±0.5%

**Q.** And the Na [3]?
**A.** 144 ± 2 mmol/L

**Q.** What about the Plasmatic cells [3] of the same compound?
**A.** 1.3±0.5%

**Q.** And the Platelets [3]?
**A.** 340±25 10^9/L

**Q.** What about the Protein [3] of the same compound?
**A.** 54.7 ± 7.3 g/L

**Q.** And the RBC sedimentation count [3]?
**A.** 24.1±4.5 mm/h

**Q.** What about the Segmented neutrophils [3] of the same compound?
**A.** 11.6±1.3%

**Q.** And the Total cholesterol [3]?
**A.** 1.10 ± 0.29 mmol/L

**Q.** What about the Total lipids [3] of the same compound?
**A.** 2.06 ± 0.27 g/L

**Q.** And the Urea [3]?
**A.** 7.21 ± 0.3 mmol/L

**Q.** And the WBC [3]?
**A.** 4.9±0.2 10^9/L

**Q.** For CC(=O)O[C@H]1C(=O)[C@@]2(C)[C@H]([C@H](OC(=O)c3ccccc3)[C@]3(O)C[C@H](OC(=O)[C@H](O)[C@@H](NC(=O)c4ccccc4)c4ccccc4)C(C)=C1C3(C)C)[C@]1(OC(C)=O)CO[C@@H]1C[C@@H]2O [Paclitaxel, paclitaxel], which “Con A-induced ^3HT incorporation” value (Thymocytes; ConA) is on record?
**A.** 1686±142 CPM

**Q.** What about the “Basal ^3HT incorporation” value (Thymocytes) of the same compound?
**A.** 277±21 CPM
